Here are results for 17 compounds from patent US10280179B2, “Spiroquinoxaline derivatives as inhibitors of non-apoptotic regulated cell-death” (Helmholtz Zentrum Munchen—Deutches Forschungszentrum Fur …, priority 2013, dated 2019).

Bounds are passed on as bounds.

In the first data set the test system is mouse hippocampal cell line (Ht22). Put plainly: Inhibition of glutamate-induced non-apoptotic cell death (Example B.2). The settings on record: HT-22, Ht22 cells, glutamate 5 mM, 72 hours, cell survival, read-out: Ht22/GLU (Example B.2) IC50. The data set is classed as cell-based. The essentials:
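Protection from lethal glutamate (5 mM final) measured in mouse hippocampal Ht22 cells co-treated at seeding with compound from 0.5 pM to 100 μM, in triplicate. Survival read after 72 h at 37 °C/5% CO2, against glutamate-only and alpha-tocopherol controls.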
Regarding `Cc1ccc(CNC2=Nc3ccccc3NC23CCCCC3)cc1` [C-12], the IC50 turned out to be 0.298 µM.

As for `Fc1ccc(CNC2=Nc3ccccc3NC23CCOCC3)cc1` [O/S-6], the IC50 worked out at 0.218 µM.

Still in this data set, the particulars now being: HT-22, Ht22 cells, glutamate-induced cell death, read-out: Ht22/GLU.
In the case of `c1ccc(CNC2=Nc3ccccc3NC23CCCCCC3)cc1` [C-214], the IC50 was under 1 µM.

As for `c1ccc(CNC2=Nc3ccccc3NC23CCSCC3)cc1` [O/S-338], the IC50 was under 5 µM.

For the compound `Clc1cccc(CNC2=Nc3cc(Cl)c(Cl)cc3NC23CCOCC3)c1` [O/S-94], the IC50 is under 0.5 µM.

Take `c1ccc(CNC2=Nc3cc4c(cc3NC23CCCCC3)OCCO4)cc1` [C-223]: the IC50 was under 1 µM.

In the case of `FC(F)(F)c1cccc(CNC2=Nc3cc(Cl)c(Cl)cc3NC23CCCCCC3)c1` [C-260], the IC50 was under 0.5 µM.

In the case of `FC(F)(F)c1cccc(CNC2=Nc3ccccc3NC23CCCCCC3)c1` [C-261], the IC50 is under 0.5 µM.

As for `Fc1cc2c(cc1F)NC1(CCNCC1)C(NCc1ccccc1)=N2` [N-223], the IC50 is under 0.05 µM.

`Cc1ccc(CNC2=Nc3ccccc3NC23CCCCC3)cc1` [C-12]: the IC50 is under 0.5 µM.

As for `Cc1cccc(CNC2=Nc3cc(Cl)c(Cl)cc3NC23CCCCCC3)c1` [C-267], the IC50 is under 0.5 µM.

For the compound `Clc1cccc(CNC2=Nc3ccccc3NC23CCCCCCC3)c1` [C-206], the IC50 was under 0.5 µM.

Consider `Fc1ccc(CNC2=Nc3ccccc3NC23CCOCC3)cc1` [O/S-6], for which the IC50 is under 0.5 µM.

Consider `Fc1cccc(F)c1CNC1=Nc2ccccc2NC12CCNCC2` [N-231], for which the IC50 was under 0.05 µM.

In the case of `Cc1cc2c(cc1C)NC1(CCNCC1)C(NCc1cccc(F)c1)=N2` [N-257], the IC50 is under 0.1 µM.

For the compound `CC1CC2(CCN1)Nc1ccccc1N=C2NCc1ccccc1` (stereo not drawn) [N-240], the IC50 was under 0.5 µM.

Regarding `Cc1cccc2c1NC1(CCCCC1)C(NCc1ccccc1)=N2` [C-263], the IC50 is under 0.5 µM.

Consider `Clc1cccc(CNC2=Nc3ccccc3NC23CCSCC3)c1` [O/S-168], for which the IC50 was under 0.5 µM.

On to `Clc1cccc(CNC2=Nc3ccccc3NC23CCCCCC3)c1` [C-216], for which the IC50 was under 0.5 µM.

System in a further data set: not listed separately
Put plainly: Cellular toxicity, same assay as Example B.4 without TAM (Example B.5). Type of data set: cell-based. As to conditions: mouse; Pfa1 cells without TAM; read-out: TC50 (the source's name). From the text: Cellular Toxicity of Compounds of the Invention
An estimate of the toxicity for compounds of the invention was obtained by using the same assay as described in Example B.4, but without the addition of TAM. […] Such TC50 values obtained for certain compounds disclosed herein, together with an approximate therapeutic window (estimated by dividing each TC50 by the corresponding IC50 determined from example B.4) are shown in Table 3.
Turning to `c1ccc(CNC2=Nc3ccccc3NC23CCCCCC3)cc1` [C-214], the CC50 was 10 to 20 µM.

On to `c1ccc(CNC2=Nc3ccccc3NC23CCSCC3)cc1` [O/S-338], for which the CC50 lay in the range of 50 to 100 µM.

On to `Clc1cccc(CNC2=Nc3cc(Cl)c(Cl)cc3NC23CCOCC3)c1` [O/S-94], for which the CC50 fell in the range of 10 to 20 µM.

For the compound `c1ccc(CNC2=Nc3cc4c(cc3NC23CCCCC3)OCCO4)cc1` [C-223], the CC50 lay within 20 to 50 µM.

In the case of `FC(F)(F)c1cccc(CNC2=Nc3cc(Cl)c(Cl)cc3NC23CCCCCC3)c1` [C-260], the CC50 is 5 to 10 µM.

As for `FC(F)(F)c1cccc(CNC2=Nc3ccccc3NC23CCCCCC3)c1` [C-261], the CC50 was in the range of 10 to 20 µM.

For the compound `Fc1cc2c(cc1F)NC1(CCNCC1)C(NCc1ccccc1)=N2` [N-223], the CC50 lay within 20 to 50 µM.

For `Cc1ccc(CNC2=Nc3ccccc3NC23CCCCC3)cc1` [C-12], the CC50 fell in the range of 50 to 100 µM.

As to `Cc1cccc(CNC2=Nc3cc(Cl)c(Cl)cc3NC23CCCCCC3)c1` [C-267], the CC50 was 10 to 20 µM.

For the compound `Clc1cccc(CNC2=Nc3ccccc3NC23CCCCCCC3)c1` [C-206], the CC50 is 5 to 10 µM.

In the case of `Fc1ccc(CNC2=Nc3ccccc3NC23CCOCC3)cc1` [O/S-6], the CC50 is 50 to 100 µM.

`Fc1cccc(F)c1CNC1=Nc2ccccc2NC12CCNCC2` [N-231]: the CC50 fell in the range of 10 to 20 µM.

In the case of `Cc1cc2c(cc1C)NC1(CCNCC1)C(NCc1cccc(F)c1)=N2` [N-257], the CC50 is 1 to 2 µM.

With `CC1CC2(CCN1)Nc1ccccc1N=C2NCc1ccccc1` (stereo not drawn) [N-240], the CC50 is 10 to 20 µM.

Regarding `Cc1cccc2c1NC1(CCCCC1)C(NCc1ccccc1)=N2` [C-263], the CC50 lay within 10 to 20 µM.

With `Clc1cccc(CNC2=Nc3ccccc3NC23CCSCC3)c1` [O/S-168], the CC50 is 20 to 50 µM.

In the case of `Clc1cccc(CNC2=Nc3ccccc3NC23CCCCCC3)c1` [C-216], the CC50 lay within 10 to 20 µM.

A further data set deals with Pfa1 cells. The experiment in a line: Inhibition of non-apoptotic cell death after tamoxifen-induced GPx4 knockout in a recombinant cell line (Example B.4). The settings on record: Mus musculus, read-out: Pfa1/TAM IC50. Type of data set: cell-based. In outline:
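Immortalised murine fibroblasts with tamoxifen-inducible CreERT2 for ablation of both GPx4 copies (Pfa1 cells) received tamoxifen on day 0 together with test compound. Cell survival was measured by AlamarBlue after 72 hours.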
`c1ccc(CNC2=Nc3ccccc3NC23CCCCCC3)cc1` [C-214]: the IC50 was under 0.5 µM.

As for `c1ccc(CNC2=Nc3ccccc3NC23CCSCC3)cc1` [O/S-338], the IC50 is under 1 µM.

Regarding `Clc1cccc(CNC2=Nc3cc(Cl)c(Cl)cc3NC23CCOCC3)c1` [O/S-94], the IC50 was under 0.05 µM.

Regarding `c1ccc(CNC2=Nc3cc4c(cc3NC23CCCCC3)OCCO4)cc1` [C-223], the IC50 was under 0.2 µM.

As for `FC(F)(F)c1cccc(CNC2=Nc3cc(Cl)c(Cl)cc3NC23CCCCCC3)c1` [C-260], the IC50 is under 0.2 µM.

`FC(F)(F)c1cccc(CNC2=Nc3ccccc3NC23CCCCCC3)c1` [C-261]: the IC50 was under 0.5 µM.

With `Fc1cc2c(cc1F)NC1(CCNCC1)C(NCc1ccccc1)=N2` [N-223], the IC50 is under 0.05 µM.

In the case of `Cc1ccc(CNC2=Nc3ccccc3NC23CCCCC3)cc1` [C-12], the IC50 is under 0.5 µM.

With `Cc1cccc(CNC2=Nc3cc(Cl)c(Cl)cc3NC23CCCCCC3)c1` [C-267], the IC50 is under 0.2 µM.

With `Clc1cccc(CNC2=Nc3ccccc3NC23CCCCCCC3)c1` [C-206], the IC50 is under 0.5 µM.

As to `Fc1ccc(CNC2=Nc3ccccc3NC23CCOCC3)cc1` [O/S-6], the IC50 was under 1 µM.

Take `Fc1cccc(F)c1CNC1=Nc2ccccc2NC12CCNCC2` [N-231]: the IC50 was under 0.05 µM.

For `Cc1cc2c(cc1C)NC1(CCNCC1)C(NCc1cccc(F)c1)=N2` [N-257], the IC50 was under 0.1 µM.

Consider `CC1CC2(CCN1)Nc1ccccc1N=C2NCc1ccccc1` (stereo not drawn) [N-240], for which the IC50 is under 0.5 µM.

On to `Cc1cccc2c1NC1(CCCCC1)C(NCc1ccccc1)=N2` [C-263], for which the IC50 is under 0.5 µM.

Turning to `Clc1cccc(CNC2=Nc3ccccc3NC23CCSCC3)c1` [O/S-168], the IC50 is under 0.2 µM.

Take `Clc1cccc(CNC2=Nc3ccccc3NC23CCCCCC3)c1` [C-216]: the IC50 is under 0.1 µM.

The next data set deals with human neuroblastoma cell line SH-SY5Y. Put plainly: Inhibition of BSO-induced non-apoptotic cell death (Example B.1). Type of data set: cell-based. As to conditions: SH-SY5Y cells, 50 μM BSO, 72 hours, read-out: SH-SY5Y/BSO IC50. From the text: Inhibition of BSO-Induced Non-Apoptotic Cell Death by Compounds Disclosed Herein
L-Buthionine sulfoximine (BSO) is a well-known glutathione (GSH) depletory, which inhibits gamma-glutamyl-cysteine-synthetase, the enzyme catalyzing the rate-limiting step in GSH biosynthesis. The human neuroblastoma cell line SH-SY5Y is sensitive to BSO-induced intracellular glutathione depletion, which causes high levels of reactive oxygen species (ROS) and cellular stress mimicking cellular conditions following ischemia (cf., e.g., Yamada et al., Neurochem. Int. 59:1003-9 (2011)).
Compounds disclosed herein were evaluated for their ability to promote cell survival upon administration of a lethal dose of BSO to cell-culture medium. Briefly, SH-SY5Y cells (ATCC® CRL-2266™) were propagated in DMEM supplemented with 10% FBS/1% Penicillin-Streptomycin, and then seeded onto 96-well plates at a concentration of 750 cells/well in 100 μL of media, to which BSO (Sigma Aldrich) was added (to a final concentration of 50 μM) together with increasing concentrations of the compound to be tested, and the plates incubated at 37° C./5% CO2 for 72 hours. Compound dilutions (0.5 pM to 100 μM) were prepared from 10 mM stocks dissolved in DMSO and diluted in media. Cells treated with BSO alone were used as negative control and alpha-Tocopherol (Sigma Aldrich) was used as positive control. Compound concentrations were tested in triplicate. After incubation, cell survival was detected using the live/dead cell assay AquaBluer™ (MultiTarget Pharmaceuticals) and quantified using a fluorescence plate reader (excitation filter: 530-560 nm/emission filter: 590 nm) (SpectraMax M4; Molecular Devices). Fluorescence data so obtained was normalised to the percentage of surviving cells and IC50 values calculated using the GraphPad Prism (GraphPad Software, Inc) software package.
Consider `c1ccc(CNC2=Nc3ccccc3NC23CCCCCC3)cc1` [C-214], for which the IC50 was under 0.5 µM.

As for `c1ccc(CNC2=Nc3ccccc3NC23CCSCC3)cc1` [O/S-338], the IC50 is under 0.5 µM.

Consider `Clc1cccc(CNC2=Nc3cc(Cl)c(Cl)cc3NC23CCOCC3)c1` [O/S-94], for which the IC50 was under 0.05 µM.

Turning to `c1ccc(CNC2=Nc3cc4c(cc3NC23CCCCC3)OCCO4)cc1` [C-223], the IC50 was under 0.5 µM.

For the compound `FC(F)(F)c1cccc(CNC2=Nc3cc(Cl)c(Cl)cc3NC23CCCCCC3)c1` [C-260], the IC50 is under 0.05 µM.

For the compound `FC(F)(F)c1cccc(CNC2=Nc3ccccc3NC23CCCCCC3)c1` [C-261], the IC50 is under 0.05 µM.

With `Fc1cc2c(cc1F)NC1(CCNCC1)C(NCc1ccccc1)=N2` [N-223], the IC50 was under 0.05 µM.

On to `Cc1ccc(CNC2=Nc3ccccc3NC23CCCCC3)cc1` [C-12], for which the IC50 is under 0.5 µM.

With `Cc1cccc(CNC2=Nc3cc(Cl)c(Cl)cc3NC23CCCCCC3)c1` [C-267], the IC50 is under 0.1 µM.

Take `Clc1cccc(CNC2=Nc3ccccc3NC23CCCCCCC3)c1` [C-206]: the IC50 is under 0.05 µM.

For the compound `Fc1ccc(CNC2=Nc3ccccc3NC23CCOCC3)cc1` [O/S-6], the IC50 was under 0.5 µM.

Take `Fc1cccc(F)c1CNC1=Nc2ccccc2NC12CCNCC2` [N-231]: the IC50 was under 0.1 µM.

With `Cc1cc2c(cc1C)NC1(CCNCC1)C(NCc1cccc(F)c1)=N2` [N-257], the IC50 was under 0.02 µM.

In the case of `CC1CC2(CCN1)Nc1ccccc1N=C2NCc1ccccc1` (stereo not drawn) [N-240], the IC50 is under 0.1 µM.

Regarding `Cc1cccc2c1NC1(CCCCC1)C(NCc1ccccc1)=N2` [C-263], the IC50 is under 0.05 µM.

In the case of `Clc1cccc(CNC2=Nc3ccccc3NC23CCSCC3)c1` [O/S-168], the IC50 is under 0.1 µM.

On to `Clc1cccc(CNC2=Nc3ccccc3NC23CCCCCC3)c1` [C-216], for which the IC50 was under 0.05 µM.

The same data set, now with this note: SH-SY5Y cells, BSO 50 μM, 72 hours, cell survival (AquaBluer), read-out: SH-SY5Y/BSO (Example B.1) IC50.
For `Cc1ccc(CNC2=Nc3ccccc3NC23CCCCC3)cc1` [C-12], the IC50 is 0.468 µM.

For the compound `Fc1ccc(CNC2=Nc3ccccc3NC23CCOCC3)cc1` [O/S-6], the IC50 stood at 0.0683 µM.
